In patent publication US7713994B2 (Wyeth LLC, priority 2005, dated 2010):
Read-outs that look alike come from different tables or passages of the source.

How the values were obtained:
cyclin D1/cdk 4 enzyme = target: T1, cyclin D1/cdk 4 enzyme (Homo sapiens, UniProt P11802); experiment: CDK4 ELISA kinase assay (phospho-Rb ser 795 detection); type: biochemical
T1 construct: made in house; host or cells: Sf9 insect cells, recombinant baculovirus
Outline: (§1)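 ELISA format: plate-bound GST-Rb, 200 μM ATP, Sf9 cyclin/CDK enzyme, 1 h at 30° C; then anti-pRb Ser795 primary overnight at 4° C, HRP secondary, TMB. IC50 after no-substrate background subtraction.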

cyclin E/CDK2 enzyme = target: T2, cyclin E/CDK2 enzyme (Homo sapiens, UniProt P24941); experiment: CDK2 ELISA kinase assay (phospho-Rb ser 795 detection); type: biochemical
T2 construct: made in house; host or cells: Sf9 insect cells, recombinant baculovirus
Outline: as §1

cyclin B/CDK1 enzyme = target: T3, cyclin B/CDK1 enzyme (Homo sapiens, UniProt P06493); experiment: CDK1 ELISA kinase assay (phospho-Rb ser 795 detection); type: biochemical
T3 construct: purchased New England BioLabs; host or cells: Sf9 insect cells, recombinant baculovirus
T3 sequence (P06493 whole entry): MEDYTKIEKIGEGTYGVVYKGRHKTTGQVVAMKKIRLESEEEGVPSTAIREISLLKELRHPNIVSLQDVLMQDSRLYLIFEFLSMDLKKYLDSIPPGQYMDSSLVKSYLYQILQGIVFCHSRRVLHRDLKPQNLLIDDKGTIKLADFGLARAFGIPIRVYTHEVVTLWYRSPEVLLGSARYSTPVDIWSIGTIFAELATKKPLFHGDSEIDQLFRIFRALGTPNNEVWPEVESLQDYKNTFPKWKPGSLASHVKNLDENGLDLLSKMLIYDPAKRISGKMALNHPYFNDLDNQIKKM
T3 sequence (P14635 whole entry partner): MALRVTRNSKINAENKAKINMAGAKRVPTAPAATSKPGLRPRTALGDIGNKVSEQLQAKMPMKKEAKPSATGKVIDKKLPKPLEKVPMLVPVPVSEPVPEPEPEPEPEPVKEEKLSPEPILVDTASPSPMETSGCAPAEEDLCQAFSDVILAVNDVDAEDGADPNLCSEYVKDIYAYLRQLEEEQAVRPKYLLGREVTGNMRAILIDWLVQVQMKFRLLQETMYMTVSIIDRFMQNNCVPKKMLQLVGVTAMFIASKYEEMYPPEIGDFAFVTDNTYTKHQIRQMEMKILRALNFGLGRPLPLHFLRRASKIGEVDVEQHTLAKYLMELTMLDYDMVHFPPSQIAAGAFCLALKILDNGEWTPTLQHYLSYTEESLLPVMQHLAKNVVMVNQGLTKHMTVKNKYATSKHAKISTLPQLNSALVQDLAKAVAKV
Outline: as §1

BT474 = experiment: Cytotoxicity assay (SRB), BT474; type: cell-based
Outline: (§2)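 Seeding: BT474 12000, HCT-116 4000, LoVo 6000, MCF-7 6000 cells/well; overnight attachment, 37 °C, 7% CO2. Drug exposure 3 d (BT474 6 d), RPMI 1640 + 5% FBS. Readout: TCA fix, 0.4% SRB, Tris solubilisation, A540.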

HCT-116 = experiment: Cytotoxicity assay (SRB), HCT-116; type: cell-based; conditions: Homo sapiens, HCT-116, 72 h, HCT116 cells, SRB, read-out: In Vitro Cellular Activity IC50 HCT116
Outline: as §2

LoVo = experiment: Cytotoxicity assay (SRB), LoVo; type: cell-based; conditions: Homo sapiens, LoVo, 72 h, LoVo cells, SRB, read-out: In Vitro Cellular Activity IC50 LOVO
Outline: as §2

MCF-7 = experiment: Cytotoxicity assay (SRB), MCF-7; type: cell-based; conditions: Homo sapiens, MCF7, 72 h, MCF-7 cells, SRB, read-out: In Vitro Cellular Activity IC50 MCF-7
Outline: as §2

[1] = In Vitro Enzyme Assay, cyclin D1/cdk 4, read-out: CDK4 IC50
[2] = In Vitro Enzyme Assay, cyclin E/CDK2, read-out: CDK2 IC50
[3] = In Vitro Enzyme Assay, cyclin B/CDK1, read-out: CDK1 IC50
[4] = Homo sapiens, BT-474, 144 h, BT474 cells, 6 days, SRB; read-out: In Vitro Cellular Activity IC50 BT474
[5] = In Vitro Enzyme Assays, 200 μM ATP, read-out: CDK4 IC50
[6] = In Vitro Enzyme Assays, read-out: CDK2 IC50
[7] = In Vitro Enzyme Assays, read-out: CDK1 IC50
[8] = Homo sapiens, BT-474, 144 h, BT474 cells, SRB, 6 days; read-out: In Vitro Cellular Activity IC50 BT474

T1 sequence (P11802 whole entry, species assumed): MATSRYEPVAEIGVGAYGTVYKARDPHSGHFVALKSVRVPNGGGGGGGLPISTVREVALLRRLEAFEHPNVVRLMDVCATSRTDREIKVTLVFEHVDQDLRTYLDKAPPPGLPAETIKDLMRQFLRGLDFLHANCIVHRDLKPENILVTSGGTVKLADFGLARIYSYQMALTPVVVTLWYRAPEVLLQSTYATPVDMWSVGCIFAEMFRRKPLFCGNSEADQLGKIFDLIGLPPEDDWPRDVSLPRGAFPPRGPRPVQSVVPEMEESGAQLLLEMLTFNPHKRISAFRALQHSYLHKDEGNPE
T1 sequence (P24385 whole entry partner, species assumed): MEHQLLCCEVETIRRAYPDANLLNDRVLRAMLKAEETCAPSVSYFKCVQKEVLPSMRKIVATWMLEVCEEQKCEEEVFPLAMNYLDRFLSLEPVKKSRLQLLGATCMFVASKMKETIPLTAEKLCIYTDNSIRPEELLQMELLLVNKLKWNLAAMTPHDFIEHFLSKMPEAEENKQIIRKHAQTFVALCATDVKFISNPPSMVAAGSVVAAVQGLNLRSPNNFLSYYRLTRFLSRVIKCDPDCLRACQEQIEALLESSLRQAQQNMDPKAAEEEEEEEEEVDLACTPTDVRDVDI

Compound	IC50 (cyclin D1/cdk 4 enzyme; [1])	IC50 (cyclin E/CDK2 enzyme; [2])	IC50 (cyclin B/CDK1 enzyme; [3])	IC50 (BT474; [4])	IC50 (HCT-116; 3 days)	IC50 (LoVo; 3 days)	IC50 (MCF-7; 3 days)	melting point	IC50 (cyclin D1/cdk 4 enzyme; [5])	IC50 (cyclin E/CDK2 enzyme; [6])	IC50 (cyclin B/CDK1 enzyme; [7])	IC50 (BT474; [8])	IC50 (HCT-116; three days)	IC50 (LoVo; three days)	IC50 (MCF-7; three days)
CN1CCN(c2ccc(N/C=C3\C(=O)NC(=O)c4ccc(-c5cccn5C)cc43)cn2)CC1 [Example 474, (4Z)-4-({[6-(4-Methylpiperazin-1-yl)pyridin-3-yl]amino}methylene)-6-(1-methyl-1H-pyrrol-2-yl)isoquinoline-1,3(2H,4H)-dione]	4.2 µM	> 50 µM	> 50 µM	7.4 µM	3.5 µM	3.8 µM	4 µM	216 to 217 °C	–	–	–	–	–	–	–
CC1CN(C)[C@H](C)CN1c1ccc(N/C=C2\C(=O)NC(=O)c3ccc(Br)cc32)cc1 (stereo in doubt) [Example 238, (4Z)-6-Bromo-4-[({4-[(2S,5R)-2,4,5-trimethylpiperazin-1-yl]phenyl}amino)methylene]-isoquinoline-1,3(2H,4H)-dione]	–	–	–	–	–	–	–	184 to 185 °C	4.8 µM	> 50 µM	> 50 µM	7.4 µM	6.7 µM	4.3 µM	1 µM
C[C@@H]1CN(c2ccc(N/C=C3\C(=O)NC(=O)c4ccc(-c5ccc(F)cc5)cc43)cc2F)C[C@H](C)N1 [Example 326, (4Z)-4-[({4-[(3R,5S)-3,5-Dimethylpiperazin-1-yl]-3-fluorophenyl}amino)methylene]-6-(4-fluorophenyl)isoquinoline-1,3(2H,4H)-dione]	–	–	–	–	–	–	–	182 to 183 °C	9.2 µM	> 50 µM	31.4 µM	0.98 µM	1 µM	3.7 µM	1.8 µM
CN1CCN(c2ccc(N/C=C3\C(=O)NC(=O)c4ccc(C#Cc5ccccc5)cc43)cc2)CC1 [Example 171, (4Z)-4-({[4-(4-Methylpiperazin-1-yl)phenyl]amino}methylene)-6-(phenylethynyl)-isoquinoline-1,3(2H,4H)-dione]	–	–	–	–	–	–	–	169 to 170 °C	2.3 µM	> 50 µM	33.2 µM	5.1 µM	1.2 µM	9.7 µM	3 µM
O=C1NC(=O)c2ccc(Br)cc2/C1=C/NCc1cc(O)cc(O)c1 [Example 64]	–	–	–	–	–	–	–	318 to 319 °C	0.015 µM	0.62 µM	16.5 µM	28 µM	> 50 µM	> 50 µM	> 50 µM
COC1CCN(Cc2ccc(N/C=C3\C(=O)NC(=O)c4ccc(I)cc43)cc2)CC1 [Example 394, (4Z)-6-Iodo-4-[({4-[(4-methoxypiperidin-1-yl)methyl]phenyl}amino)methylene]isoquinoline-1,3(2H,4H)-dione]	–	–	–	4.03 µM	3.7 µM	3.7 µM	2.6 µM	199 to 200 °C	0.21 µM	> 50 µM	> 50 µM	–	–	–	–
CN1CCN(c2cnc(N/C=C3\C(=O)NC(=O)c4ccc(I)cc43)cn2)CC1 [Example 507, (4Z)-6-Iodo-4-({[5-(4-methylpiperazin-1-yl)pyrazin-2-yl]amino}methylene)isoquinoline-1,3(2H,4H)-dione]	13.7 µM	16 µM	3 µM	9.5 µM	3.1 µM	18 µM	11 µM	238 to 239 °C	–	–	–	–	–	–	–
COC[C@H]1CCCN1Cc1ccc(N/C=C2\C(=O)NC(=O)c3ccc(-c4ccoc4)cc32)cc1 [Example 330, (4Z)-6-(3-Furyl)-4-{[(4-{[(2R)-2-(methoxymethyl)pyrrolidin-1-yl]methyl}phenyl)amino]methylene}isoquinoline-1,3(2H,4H)-dione]	–	–	–	–	–	–	–	130 to 131 °C	0.2 µM	> 50 µM	> 50 µM	1 µM	2.1 µM	2.3 µM	0.69 µM
